“Also recorded” adds a separate entry of the source.
Columns and labels:
Assay type in all cases: cell-based, human
[1] = system: PKC-ε siRNA nucleofected HUVEC; assay: LTB4 mediated neutrophil migration across PKC-ε siRNA nucleofected HUVEC; details: 1 h pretreatment; PKC-ε knockdown
Text: Because studies in FIG. 8 could not discriminate between PKC-δ and […] isoforms mediating the effect of Bryostatin-1, we knocked down individual isoforms using siRNA technology. In order to verify that we could knock down particular isoforms of PKC, specifically PKC-8 and PKC-ε isoforms in HUVEC, siRNA which selectively bind to and eliminate human PKC-8 and PKC-ε mRNAs were nucleofected into HUVEC prior to migration studies. […] HUVEC cells treated using these approaches were then subjected to chemotaxis studies with Bryostatin-1 to elucidate the mechanism of Bryostatin-1 mediated inhibition of LTB4 induced PMN migration.
Neutrophil Transendothelial Migration (TEM) Restoration Studies: HUVECs were pretreated with Go-6983 (1, 10, 100 nM), or Go-6976 (1, 10,100 nM) for 30 minutes, then spiked with 100 nM Bryostatin-1 for 1 hour. […] Migration was stopped by removing the inserts and migration was measured using the MPO assay.
Myeloperoxidase Assay: Neutrophil migration was measured using myeloperoxidase (MPO) analysis. […] The supernatant was removed, and MPO activity was measured using TMB/peroxide as chromogen. The reaction was stopped with sulfuric acid and absorbance was read at 450 nm using a microplate reader. […] Data was expressed as “% neutrophil migration”, which allowed cumulative statistical analysis to be done and account for unpreventable batch-to-batch variations. […]

[2] = system: neutrophil adhesion to the endothelial monolayer; assay: LTB4 induced neutrophil adhesion to the endothelial monolayer; details: data not shown
Procedure: Turning now to FIG. 1, FIG. 1 graphically depicts neutrophil adhesion to and migration through human microvascular endothelial cell monolayers (HMECs) in a two-compartment system upon administration of an LTB4 gradient in the lower chamber over time. HMECs were plated on porous 8 μm (micron) transwell two-chamber inserts and allowed to reach confluency for migration assays. For the adhesion assay, HMECs were plated on 48-well plates. 100 nM LTB4 and 500,000 neutrophils were added to the upper compartment to initiate adhesion, while 500,000 neutrophils were added to the upper compartment and LTB4 to the lower compartment to initiate migration. Both neutrophil adhesion and migration were measured over 3 h and expressed as % change in adhesion and the fraction of migrated cells in chemoattractant stimulated experiments vs. controls which had no chemoattractant added. […]
Confluent HMEC monolayers were plated on 48-well plates for adhesion studies, transwells for migration studies, and pretreated with a variety of pharmacological inhibitors and activators for 1 hour. […] For adhesion assays, LTB4 was added along with 500,000 neutrophils and allowed to adhere for 1 h (time of max, adhesion as determined in FIG. 1). […] The data are shown as % change in migration and adhesion as assessed by MPO assay. All values are expressed as means+SE. […]

[3] = system: neutrophil migration across HUVECs; assay: Time course of LTB4 induced neutrophil migration across HUVECs; details: single 1 h 100 nM pretreatment, washed, tested at 0, 24, 48 h
Procedure: Time Course Assays: At confluency, HUVECs were treated for 1 h at 37° C. with Bryostatin-1 (10 nM, 100 nM) in EGM or EGM alone. Inserts were washed three times with HBSS (to reduce drug effects on the neutrophils) and migration assays were ran at t=0, 24, or 48 h. After time elapsed, HUVECs were placed in a new plate containing either 500 μL 100 nM LTB4 or HBSS alone for control. 500 μL HBSS was then added to the top well and spiked with 500,000 neutrophils. Neutrophils were allowed to migrate for 3 h at 37° C. Migration was stopped by removing the inserts and migration was measured using the MPO assay.
Myeloperoxidase Assay: Neutrophil migration was measured using myeloperoxidase (MPO) analysis. Cell culture inserts were first removed, and plates were spun at 1,500 RPM for 5 min. The supernatant was removed, and MPO activity was measured using TMB/peroxide as chromogen. The reaction was stopped with sulfuric acid and absorbance was read at 450 nm using a microplate reader. All experiments were performed n=6. Data was expressed as “% neutrophil migration”, which allowed cumulative statistical analysis to be done and account for unpreventable batch-to-batch variations.

HUVEC = assay: Alamar blue endothelial viability assay, HUVEC; details: for HUVEC viability at 48 h: 48 h after a single 1 h 100 nM treatment; for HUVEC viability at 1 and 24 h: single 1 h 100 nM treatment, 1, 24 h
Procedure: Viability Assay. The Alamar blue assay was used to determine endothelial viability after pharmacological intervention. Alamar blue contains a REDOX indicator that results in a color change upon chemical reduction by cellular metabolic activity. Endothelial cells were treated with Bryostatin-1 (100 nM) for 1 h and washed three times with HBSS. Alamar blue (10%) in media was added for 2.5 h at T=0, 24, or 48 hours after drug treatment and the ratio of absorbances (570-600 nm) was measured to determine metabolic activity.

SMILES	effect on LTB4 mediated neutrophil migration in PKC-ε siRNA nucleofected HUVEC [1]	effect on LTB4 induced adhesion to the endothelial monolayer [2]	time after pretreatment for which reduction of LTB4 induced migration is maintained, HUVECs [3]	HUVEC viability at 48 h (HUVEC)	HUVEC viability at 1 and 24 h (HUVEC)
CCCCCCCCCCCCCC(=O)O[C@@H]1[C@@H](C)[C@@]2(O)[C@@H](C=C(CO)C[C@]3(O)C(=O)C(C)=C[C@@H]23)[C@@H]2C(C)(C)[C@]12OC(C)=O [PMA, phorbol myristate acetate]	did not restore LTB4 induced migration	Neither PMA, nor Bryostatin-1 reduced LTB4 induced adhesion	up to 48 h	slight but significant reduction in viability	no effect
CCC/C=C/C=C/C(=O)O[C@H]1/C(=C/C(=O)OC)C[C@H]2C[C@H]([C@@H](C)O)OC(=O)C[C@H](O)C[C@@H]3C[C@H](OC(C)=O)C(C)(C)[C@](O)(C[C@@H]4C/C(=C/C(=O)OC)C[C@H](/C=C/C(C)(C)[C@]1(O)O2)O4)O3 [Bryostatin-1]	did not restore LTB4 induced migration; also recorded: still suppresses migration	Neither PMA, nor Bryostatin-1 reduced LTB4 induced adhesion	48 h	no effect	no effect
